According to ChEMBL document CHEMBL5321222, “N(14)-substituted evodiamine derivatives as dual topoisomerase 1/tubulin-Inhibiting anti-gastrointestinal tumor agents” (Eur J Med Chem, 2023):
Calls of active or inactive are those of the source. No cut-off for these calls is given here.

Legend:
RKO [1] = assay: Induction of apoptosis in human RKO cells assessed as late apoptotic cells at 0.1 uM incubated for 24 hrs by propidium iodide and Annexin V/FITC staining based flow cytometry assay (reference value: 0.50%); assay type: functional
MGC-803 [2] = assay: Induction of cell cycle arrest in human MGC-803 cells assessed as accumulation of cells at G2/M phase at 0.05 to 0.2 uM incubated for 24 hrs by propidium iodide staining based flow cytometry analysis; assay type: functional; conditions: dose 0.05-0.2 µM
MGC-803 [3] = assay: Inhibition of colony formation in human MGC-803 cells incubated for 7 days by crystal violet staining based assay; assay type: functional, cell-based; conditions: dose 10-90 nM, time 7.0 day
SW480 = assay: Antiproliferative activity against human SW480 cells assessed as reduction in cell viability incubated for 72 hrs by MTT assay; assay type: functional, cell-based; conditions: SW480, 72 h
[4] = Induction of cell cycle arrest in human RKO cells assessed as accumulation of cells at G2/M phase at 0.05 uM incubated for 24 hrs by propidium iodide staining based flow cytometry analysis; assay type: functional
RKO [5] = assay: Induction of apoptosis in human RKO cells assessed as early apoptotic cells at 0.05 uM incubated for 24 hrs by propidium iodide and Annexin V/FITC staining based flow cytometry assay (reference value: 0.16%); assay type: functional
Tubulin = assay: (§1) Inhibition of tubulin polymerization (unknown origin) measured every minute; assay type: protein-complex assay, Homo sapiens
Tubulin (Homo sapiens) [6] = target: T1, Tubulin (Homo sapiens) (UniProt P68371+Q9H4B7+P0DPH7+P68366+Q13509+Q71U36+P04350+Q3ZCM7+P07437+P68363+Q9BQE3+Q6PEY2+Q13885+Q9BVA1+Q9BUF5); assay: as §1; assay type: protein-complex assay
RKO [7] = assay: Induction of morphological changes in human RKO cells assessed as cell shrinkage at 0.05 to 0.2 uM incubated for 24 hrs by Giemsa staining based micrscopic analysis; assay type: functional; conditions: dose 0.05-0.2 µM
RKO [8] = assay: Inhibition of colony formation in human RKO cells incubated for 7 days by crystal violet staining based assay; assay type: functional, cell-based; conditions: dose 10-90 nM, time 7.0 day
RKO [9] = assay: Induction of apoptosis in human RKO cells assessed as early apoptotic cells at 0.1 uM incubated for 24 hrs by propidium iodide and Annexin V/FITC staining based flow cytometry assay (reference value: 0.16%); assay type: functional
MGC-803 [10] = assay: Induction of morphological changes in human MGC-803 cells assessed as formation of apoptotic bodies at 0.05 to 0.2 uM incubated for 24 hrs by Giemsa staining based micrscopic analysis; assay type: functional, cell-based; conditions: dose 0.05-0.2 µM
MGC-803 [11] = assay: Induction of apoptosis in human MGC-803 cells assessed as early apoptotic cells at 0.05 uM incubated for 24 hrs by propidium iodide and Annexin V/FITC staining based flow cytometry assay (reference value: 1.85%); assay type: functional
MGC-803 [12] = assay: Induction of apoptosis in human MGC-803 cells assessed as late apoptotic cells at 0.1 uM incubated for 24 hrs by propidium iodide and Annexin V/FITC staining based flow cytometry assay (reference value: 4.10%); assay type: functional
RKO [13] = assay: Induction of cell cycle arrest in human RKO cells assessed as accumulation of cells at G2/M phase at 0.05 to 0.2 uM incubated for 24 hrs by propidium iodide staining based flow cytometry analysis; assay type: functional; conditions: dose 0.05-0.2 µM
MGC-803 [14] = assay: Induction of apoptosis in human MGC-803 cells assessed as late apoptotic cells at 0.05 uM incubated for 24 hrs by propidium iodide and Annexin V/FITC staining based flow cytometry assay (reference value: 4.10%); assay type: functional
GES1 = assay: Antiproliferative activity against human GES1 cells assessed as reduction in cell viability incubated for 72 hrs by MTT assay; assay type: functional, cell-based; conditions: GES1, 72 h
MGC-803 [15] = assay: Antiproliferative activity against human MGC-803 cells assessed as reduction in cell viability incubated for 72 hrs by MTT assay; assay type: functional, cell-based; conditions: MGC-803, 72 h
RKO [16] = assay: Induction of morphological changes in human RKO cells assessed as cell deformation at 0.05 to 0.2 uM incubated for 24 hrs by Giemsa staining based micrscopic analysis; assay type: functional; conditions: dose 0.05-0.2 µM
MGC-803 [17] = assay: Induction of apoptosis in human MGC-803 cells assessed as late apoptotic cells at 0.2 uM incubated for 24 hrs by propidium iodide and Annexin V/FITC staining based flow cytometry assay (reference value: 4.10%); assay type: functional
MGC-803 [18] = assay: Induction of morphological changes in human MGC-803 cells assessed as cell deformation at 0.05 to 0.2 uM incubated for 24 hrs by Giemsa staining based micrscopic analysis; assay type: functional; conditions: dose 0.05-0.2 µM
MGC-803 [19] = assay: Induction of apoptosis in human MGC-803 cells assessed as early apoptotic cells at 0.2 uM incubated for 24 hrs by propidium iodide and Annexin V/FITC staining based flow cytometry assay (reference value: 1.85%); assay type: functional
RKO [20] = assay: Induction of apoptosis in human RKO cells assessed as late apoptotic cells at 0.2 uM incubated for 24 hrs by propidium iodide and Annexin V/FITC staining based flow cytometry assay (reference value: 0.50%); assay type: functional
MGC-803 [21] = assay: Inhibition of cell […] in human MGC-803 cells incubated for 24 hrs by scratch wound healing assay; assay type: functional, cell-based; conditions: dose 12.5-50 nM
MGC-803 [22] = assay: Induction of apoptosis in human MGC-803 cells assessed as early apoptotic cells at 0.1 uM incubated for 24 hrs by propidium iodide and Annexin V/FITC staining based flow cytometry assay (reference value: 1.85%); assay type: functional
RKO [23] = assay: Antiproliferative activity against human RKO cells assessed as reduction in cell viability incubated for 72 hrs by MTT assay; assay type: functional, cell-based
MGC-803 [24] = assay: Antiproliferative activity against human MGC-803 cells assessed as reduction in cell viability incubated for 24 hrs by BrdU staining based fluorescence microscopic analysis; assay type: functional; conditions: dose 10-90 nM
MGC-803 [25] = assay: Inhibition of cell […] in human MGC-803 cells at 5 nM incubated for 24 hrs by scratch wound healing assay; assay type: functional, cell-based
Tubulin (Homo sapiens) [26] = target: T1, Tubulin (Homo sapiens); assay: Induction of microtubule disruption in human MGC-803 cells assessed as atrophied nucleus at 50 to 200 nM incubated for 24 hrs by laser confocal microscopic analysis; assay type: cell-based; conditions: dose 50-200 nM
HGC-27 = assay: Antiproliferative activity against human HGC-27 cells assessed as reduction in cell viability incubated for 72 hrs by MTT assay; assay type: functional, cell-based; conditions: HGC-27, 72 h
LoVo = assay: Antiproliferative activity against human LoVo cells assessed as reduction in cell viability incubated for 72 hrs by MTT assay; assay type: functional, cell-based
RKO [27] = assay: Induction of apoptosis in human RKO cells assessed as late apoptotic cells at 0.05 uM incubated for 24 hrs by propidium iodide and Annexin V/FITC staining based flow cytometry assay (reference value: 0.50%); assay type: functional

In the case of CCCN1c2ccccc2C(=O)N2CCc3c([nH]c4ccccc34)C21 (configuration not stated), the Activity (RKO [1]) is reported as 33.41%, the Activity (MGC-803 [2]) is reported as “Active” and the inhibition (MGC-803 [3]) is reported as “Dose-Dependent Effect”. For the same molecule, the IC50 (SW480) was 710 nM, the Activity [4] was 40.55% and the Activity (RKO [5]) was 9.67%. The IC50 (Tubulin) was 5690 nM, the inhibition (Tubulin (Homo sapiens) [6]) was “Dose-Dependent Effect” and the Activity (RKO [7]) was “Active”. For the same molecule, the inhibition (RKO [8]) was “Dose-Dependent Effect”, the Activity (RKO [9]) was 14.52% and the Activity (MGC-803 [10]) was “Active”. For the same molecule, the Activity (MGC-803 [11]) was 3.03%, the Activity (MGC-803 [12]) was 24.63% and the Activity (RKO [13]) was “Active”. The Activity (MGC-803 [14]) was 6.84%, the IC50 (GES1) was 130 nM and the IC50 (MGC-803 [15]) was 90 nM. For the same molecule, the Activity (RKO [16]) was “Active”, the Activity (MGC-803 [17]) was 25.1% and the Activity (MGC-803 [18]) was “Active”. For the same molecule, the Activity (MGC-803 [19]) was 12.28%, the Activity (RKO [20]) was 37.67% and the inhibition (MGC-803 [21]) was “Dose-Dependent Effect”. The Activity (MGC-803 [22]) was 6.76%, the IC50 (RKO [23]) was 200 nM and the Activity (MGC-803 [24]) was “Dose-Dependent Effect”. The inhibition (MGC-803 [25]) was “Active”, the Activity (Tubulin (Homo sapiens) [26]) was “Active” and the IC50 (HGC-27) was 810 nM. The IC50 (LoVo) was 230 nM and the Activity (RKO [27]) was 21.45%.
